Assay results published in US6562828B1, “Amidine compounds” (Japan Tobacco Inc., priority 1998, dated 2003).
Where a name gives a salt, the structure may show the parent alone.

What was measured:
Human FIIa = biological target: T1, Human FIIa (Homo sapiens, UniProt P00734); assay: Determination of anti-factor IIa (FIIa) activity, synthetic substrate S-2238; type: biochemical; conditions: S-2238, 37° C., pH 8.4, read-out: Experimental Example 2: anti-FIIa activity, IC50
T1 construct: purchased Sigma

Human FXa = biological target: T2, Human FXa (Homo sapiens, UniProt P00742); assay: Determination of anti-factor Xa (FXa) activity, synthetic substrate S-2222; type: biochemical; conditions: S-2222, 37° C., pH 8.4, read-out: Experimental Example 1: anti-FXa activity, IC50
T2 construct: Human FXa [Enzyme research Laboratories (USA)] enzyme; purchased Enzyme Research Laboratories (USA)
T2 sequence (P00742 235-488 limits assumed): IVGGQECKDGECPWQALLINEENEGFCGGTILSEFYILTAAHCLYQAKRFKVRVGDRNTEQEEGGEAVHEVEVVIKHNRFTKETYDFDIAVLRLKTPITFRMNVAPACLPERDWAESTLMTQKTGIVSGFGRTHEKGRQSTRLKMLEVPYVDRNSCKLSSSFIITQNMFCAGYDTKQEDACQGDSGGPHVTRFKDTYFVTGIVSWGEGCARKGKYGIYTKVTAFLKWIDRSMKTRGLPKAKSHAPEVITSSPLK
T2 sequence (P00742 41-179 partner limits assumed): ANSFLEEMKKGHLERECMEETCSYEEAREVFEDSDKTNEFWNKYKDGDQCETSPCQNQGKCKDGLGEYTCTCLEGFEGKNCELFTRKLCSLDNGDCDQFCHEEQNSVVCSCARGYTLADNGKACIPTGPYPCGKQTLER
Experimental: Determination of Anti-factor Xa (FXa) Activity
Human FXa [Enzyme research Laboratories (USA)] enzyme (40 μl, 0.16U/ml) and test compounds (40 l) adjusted to various concentrations were incubated in 0.1M Tris (Tris-hydroxymethyl-aminomethane) buffer (pH 8.4) containing 0.2M sodium chloride (herein to be referred to as 0.1 M tris-0.2M NaCl buffer) (40 μl) at 37° C. for 10 min. A synthetic substrate S-2222 (Daiichi Pure Chemical (Tokyo, Japan), 40 μl) adjusted to 0.8 mM was added and the mixture was incubated at 37° C. for 10 min. The reaction was stopped by addition of 60% acetic acid (40 μl) and absorbance at 405 nm was measured by Model 3550 (BIO-RAD). For the control, the solvent was used instead of the test compound.

| SMILES | IC50 (Human FIIa) [µM] | IC50 (Human FXa) [µM] |
| --- | --- | --- |
| N#CC1(CCOc2ccc3c(c2)CN(C(=N)N)CC3)CCN(c2ccncc2)CC1 [Example 37, 7-[2-[4-Cyano-1-(pyridin-4-yl)piperidin-4-yl]ethoxy]-1,2,3,4-tetrahydroisoquinoline-2-carboxamidine Dihydrochloride] | > 10 | 0.04 |
| CCOC(=O)C1(COc2ccc3ccc(C(=N)N)cc3c2)CCN(c2ccncc2)CC1 [Example 40, 4-(2-Amidinonaphthalen-7-yloxymethyl)-1-(pyridin-4-yl)piperidine-4-carboxylic Acid Ethyl Ester Dihydrochloride] | > 10 | 0.5 |
| N=C(N)N1CCc2ccc(OCCC3(C(=O)O)CCN(c4ccncc4)CC3)cc2C1 [Example 16, 4-[2-(2-Amidino-1,2,3,4-tetrahydroisoquinolin-7-yloxy)ethyl]-1-(pyridin-4-yl)piperidine-4-carboxylic Acid Dihydrochloride] | > 10 | 0.2 |
| Cc1cc(N2CCC(COc3ccc4c(c3)CN(C(=N)N)CC4)(C(=O)O)CC2)cc(C)n1 [Example 11, 4-(2-Amidino-1,2,3,4-tetrahydroisoquinolin-7-yloxymethyl)-1-(2,6-dimethylpyridin-4-yl)piperidine-4-carboxylic Acid Dihydrochloride] | > 10 | 0.3 |
| N=C(N)c1ccc2c(c1)nc(CN(C(=O)c1ccc(C(=O)O)cc1)c1ccc(OC3CCN(C(=N)NCc4ccccc4)CC3)cc1)n2CC(=O)NC1CCCCC1 [Example 110, N-[5-Amidino-1-(cyclohexylcarbamoylmethyl)benzimidazol-2-ylmethyl]-N-[4-[1-[amino(benzylinino)methyl]piperidin-4-yloxy]phenyl]carbamoylbenzoic Acid Dihydrochloride] |  | 0.08 |
| CC(=N)N1CCC(Oc2ccc(N(Cc3nc4cc(C(=N)N)ccc4n3C/C=C/c3ccccc3)C(=O)c3ccc(C(=O)O)cc3)cc2)CC1 [Example 109, N-[5-Amidino-1-(3-phenyl-2-propenyl)benzimidazol-2-ylmethyl]-N-[4-(1-acetimidoylpiperidin-4-yloxy)phenyl]carbamoylbenzoic Acid Dihydrochloride] | > 10 | 0.2 |
| N=C(N)N1CCc2ccc(OCC3CCN(S(=O)(=O)NCc4ccccc4)CC3)cc2C1 [Example 83, N-Benzyl-4-(2-amidino-1,2,3,4-tetrahydroisoquinolin-7-yloxymethyl)piperidine-1-sulfonamide hydrochloride] | > 10 | 0.7 |
| N=C(N)N1CCc2ccc(SCCC3(C(=O)O)CCN(c4ccncc4)CC3)cc2C1 [Example 44, 4-[2-(2-Amidino-1,2,3,4-tetrahydroisoquinolin-7-ylthio)ethyl]-1-(pyridin-4-yl)piperidine-4-carboxylic Acid Dihydrochloride] | > 10 | 0.7 |
| N=C(N)N1CCc2ccc(OCC3CCN(Cc4ccncc4)CC3)cc2C1 [Example 22, 7-[1-(Pyridin-4-ylmethyl)piperidin-4-ylmethoxy-1,2,3,4-tetrahydroisoquinoline-2-carboxamidine Trihydrochloride] | > 10 | 0.8 |
| CCOC(=O)C(=O)N(Cc1nc2cc(C(=N)N)ccc2n1CC(=O)NC1CCCCC1)C1CCN(c2ccncc2)CC1 [Example 60, 1-(Cyclohexylcarbamoylmethyl)-2-[N-[1-(pyridin-4-yl)piperidin-4-yl]-N-ethoxalylaminomethyl]benzimidazole-5-carboxamidine Dihydrochloride] | > 10 | 0.9 |
| N=C(N)N1CCc2ccc(OCC3CCN(CCO)CC3)cc2C1 [Example 21, 7-[1-(2-Hydroxyethyl)piperidin-4-ylmethoxy]-1,2,3,4-tetrahydroisoquinoline-2-carboxamidine Dihydrochloride] | > 10 | 0.7 |
| N=C(N)N1CCc2ccc(OCC3CCN(c4ccnc5ccccc45)CC3)cc2C1 [Example 2, 7-[1-(Quinolin-4-yl)piperidin-4-ylmethoxy]-1,2,3,4-tetrahydroisoquinoline-2-carboxamidine Dihydrochloride] | > 10 | 0.4 |
| CCOC(=O)/C=C/c1cnccc1N1CCC(COc2ccc3c(c2)CN(C(=N)N)CC3)CC1 [Example 33, 3-[4-[4-(2-Amidino-1,2,3,4-tetrahydroisoquinolin-7-yloxymethyl)-piperidin-1-yl]pyridin-3-yl]-2-propenoic Acid Ethyl Ester Dihydrochloride] | > 10 | 0.3 |
| CCOC(=O)C1(CCOc2ccc3c(c2)CN(C(=N)N)CC3)CCN(c2ccncc2)CC1 [Example 15, 4-[2-(2-Amidino-1,2,3,4-tetrahydroisoquinolin-7-yloxy)ethyl]-1-(pyridin-4-yl)piperidine-4-carboxylic Acid Ethyl Ester Dihydrochloride] |  | 0.2 |
| N=C(N)N1CCc2ccc(OCC3(C(=O)O)CCN(c4ccncn4)CC3)cc2C1 [Example 14, 4-(2-Amidino-1,2,3,4-tetrahydroisoquinolin-7-yloxymethyl)-1-(pyrimidin-4-yl)piperidine-4-carboxylic Acid Dihydrochloride] | > 10 | 0.1 |
| N=C(N)c1ccc2c(c1)nc(CN(C(=O)C(=O)O)C1CCN(c3ccncc3)CC1)n2CC(=O)NC1CCCCC1 [Example 61, N-[5-Amidino-1-(cyclohexylcarbamoylmethyl)benzimidazole-2-ylmethyl]-N-[l-(pyridin-4-yl)piperidin-4-yl]aminooxalic Acid Dihydrochloride] | > 10 | 0.3 |
| N=C(N)N1CCc2ccc(OCC3CCN(c4ccncc4CCC(=O)O)CC3)cc2C1 [Example 89, 3-[4-[4-(2-Amidino-1,2,3,4-tetrahydroisoquinolin-7-yloxymethyl)piperidin-1-yl]pyridin-3-yl]propionic Acid Dihydrochloride] | > 10 | 0.2 |
| CCOC(=O)CCc1cnccc1N1CCC(COc2ccc3c(c2)CN(C(=N)N)CC3)CC1 [Example 88, 3-[4-[4-(2-Amidino-1,2,3,4-tetrahydroisoquinolin-7-yloxymethyl)piperidin-1-yl]pyridin-3-]propionic Acid Ethyl Ester Dihydrochloride] |  | 0.2 |
| CCOC(=O)C1(COc2ccc3c(c2)CN(C(=N)N)CC3)CCN(c2ccnc(C)c2)CC1 [Example 12, 4-(2-Amidino-1,2,3,4-tetrahydroisoquinolin-7-yloxymethyl)-1-(2-methylpyridin-4-yl)piperidine-4-carboxylic Acid Ethyl Ester Dihydrochloride] |  | 0.6 |
| COC(=O)c1cnccc1N1CCC(COc2ccc3c(c2)CN(C(=N)N)CC3)CC1 [Example 34, 4-[4-(2-Amidino-1,2,3,4-tetrahydroisoquinolin-7-yloxymethyl)-piperidin-1-yl]pyridine-3-carboxylic Acid Methyl Ester Dihydrochloride] | > 10 | 0.2 |
| CCOC(=O)C1(COc2ccc3c(c2)CN(C(=N)N)CC3)CCN(c2ccncc2)CC1 [Example 6, 4-(2-Amidino-1,2,3,4-tetrahydroisoquinolin-7-yloxymethyl)-1-(pyridin-4-yl)piperidine-4-carboxylic Acid Ethyl Ester Dihydrochloride] | > 10 | 0.08 |
| N=C(N)N1CCc2ccc(OCC3CCN(c4ccc(NC(=O)c5ccccc5)cn4)CC3)cc2C1 [Example 32, N-[2-[4-(2-Amidino-1,2,3,4-tetrahydroisoquinolin-7-yloxymethyl)-piperidin-1-yl]pyridin-5-yl]benzamide Dihydrochloride] | > 10 | 0.4 |
| Cc1cc(N2CCC(COc3ccc4c(c3)CN(C(=N)N)CC4)(C(=O)O)CC2)ccn1 [Example 13, 4-(2-Amidino-1,2,3,4-tetrahydroisoquinolin-7-yloxymethyl)-1-(2-methylpyridin-4-yl)piperidine-4-carboxylic Acid Dihydrochloride] | > 10 | 0.2 |
| CCOC(=O)C1(COc2ccc3c(c2)CN(C(=N)N)CC3)CCN(c2ccc(C(=N)N)cc2)CC1 [Example 98, 4-(2-Amidino-1,2,3,4-tetrahydroisoquinolin-7-yloxymethyl)-1-(4-amidinophenyl)-piperidine-4-carboxylic Acid Ethyl Ester Dihydrochloride] | > 10 | 0.4 |
| CC(=N)N1CCC(Oc2ccc(OCc3nc4cc(C(=N)N)ccc4n3CC(=O)NC[C@H]3CC[C@H](C(=O)O)CC3)cc2)CC1 [Example 53, trans-4-[2-[4-(1-Acetimidoylpiperidin-4-yloxy)phenoxymethyl]-5-amidinobenzimidazol-1-ylacetylaminomethyl]cyclohexanecarboxylic Acid Dihydrochloride] | > 10 | 0.5 |
| N=C(N)N1CCc2ccc(OCC3CCN(c4ccncc4)CC3)cc2C1 [Example 1, 7-[1-(Pyridin-4-yl)piperidin-4-ylmethoxy]-1,2,3,4-tetrahydroisoquinoline-2-carboxamidine Dihydrochloride] | > 10 | 0.06 |
| CCOC(=O)CN(Cc1nc2cc(C(=N)N)ccc2n1CC(=O)NC1CCCCC1)c1ccc(OC2CCN(C(C)=N)CC2)cc1 [Example 62, 2-[N-[4-(1-Acetimidoylpiperidin-4-yloxy)phenyl]-N-ethoxycarbonyl-methylaminomethyl]-1-(cyclohexylcarbamoylmethyl)benzimidazole-5-carboxamidine Dihydrochloride] | > 10 | 0.1 |
